The source of these data is patent publication US8507408B2 (Dow Global Technologies LLC, priority 2010, dated 2013).

In brackets after ≈: the same amount, converted by molar mass. Read-outs that look alike come from different tables or passages of the source.

In data set [1] the test system is ApCh. As to the kind of experiment: Fungal efficacy on dry paint film (Modified ASTM 5590). Format: cell-based, Aureobasidium pullulans, Cladosporium herbarum. The note with it: for % Inhibition: at the total conc; for MIC: total actives in paint, read-out: Total conc (minimum inhibitory concentration chosen for SI). Here is the method:
(§1) A single biocide or blend of biocides was post added into white acrylic latex paint free of biocides to give a maximum total active ingredient/s concentration tested. This paint was then diluted with a biocide free acrylic latex paint to give targeted concentrations for the testing. Depending on the type of biocide blends tested, the total biocides concentrations varies from 400 to 3300 ppm. After biocides addition or dilution, each sample was hand mixed for at least a minute until uniformity was achieved. Each of the paint samples as well as a control sample (containing no biocide) were used to prepare films on black plastic-vinyl chloride/acetate copolymer panels (Leneta Company, Mahwah, N.J.) using a 0.0762 mm (3 mil) bird bar applicator. The panels were thoroughly dried for at least 2 days avoiding direct exposure to sunlight. Square discs (0.5 inch^2; 1.27 cm^2) were cut out from each panel and were used as the substrate for fungal and algal efficacy tests. This sample size allowed for an agar border when the sample disc was placed into the well of the test plate. Each sample was tested in duplicate.
(§2) The appropriate media (BOLD'S 3N for Chlorophytes, BG-11 for Cyanobacteria, and PDA for fungi) were used to support microbial growth. The test plates were maintained at room temp (25° C.-26° C.), in a cycled light-dark environment, for four weeks for algae. Plates for fungal challenge tests were maintained at 30° C. for four weeks. At the end of the incubation period the samples were scored for percent area covered by visible microbial growth.
ASTM 5590 is a standard accelerated test method for determining resistance of various coatings (including paints) to fungal defacement. To accommodate for high-throughput screening, this method was scaled down from petri plates to 6-well plates. To set up the test, an agar plug was placed at the bottom of each well of the sterile 6-well plate. A single coupon was placed with a pair of sterile forceps at the center of the agar plug (on top) with the painted surface facing upwards. Fungal inoculums were prepared by mixing equal concentrations (approximately 1×10^6 cfu/ml) and equal volumes (depending on number of samples to be tested) of like growing organisms. For this synergy study, three pools of mixed fungi were prepared as the test inoculum. Cladosporium herbarum was mixed with Trichoderma viride, Aspergillus niger was mixed with Penicillium funiculosum and Alternaria alternata was mixed with Aureobasidium pullulans. […] The total percent area covered was evaluated and recorded at the end of each week and recorded in increments of 5%.
The SI is calculated based on F. C. […]

Data set [2] concerns Cs + Ck + Nc. Kind of data set: Algal efficacy on dry paint film (Modified ASTM 5589). The note with it: for MIC: Nostoc commune, total actives in paint, read-out: Total conc (minimum inhibitory concentration chosen for SI). Type of data set: cell-based, Chlorella sp., Chlorella kessleri, and Nostoc commune. As to the method:
as §1, §2
(§3) ASTM 5589 is a standard accelerated test method for determining resistance of various coatings (including paints) to algal defacement. To accommodate for high-throughput screening, this method was scaled down from petri plates to 6-well plates. A single coupon was placed with a pair of sterile forceps at the center of the agar plug (on top) with the painted surface facing upwards. Algal inoculums were prepared by mixing equal concentrations (approximately 1×10^6 cfu/ml) and equal volumes (depending on number of samples to be inoculated) of like growing organisms.
(§4) In this synergy study, three pool of mixed algae were prepared as the test inoculum, Gloeocapsa sp. and Oscillatoria sp. a mix of cyanobacteria grown on BG-11 media; Chlorella sp., Chlorella kessleri, and Nostoc commune are unicellular chlorphytes that were mixed and grown on Bold media; Trentepohlia aurea, Tretepohlia odorata, and Calotrix parientina are filamentous algae that were mixed and grown on Bold media.
(§5) Each well that contained a tested coupon was inoculated with 400 μl of organism mixture (approximately 1×10^6 cfu/ml) making sure that the whole surface (paint film as well as the agar surrounding it) was evenly covered. The plates were incubated at room temp (25° C.-26° C.) with cyclic exposure to light (OTT-Lite model #OTL4012P, 40 Watt, 26 KLumen) and dark phases, for a period of four weeks. The total area covered was evaluated at the end of each week according to percent area covered in 5% increments.
(§6) The SI is calculated based on F. C. Kull et.
(§7) NE=no end point at the concentration tested that will meet the percent inhibition criteria set in each SI calculation.

Data set [3] deals with Gs + Os. Described as above. The note with it: for MIC: total actives in paint, read-out: Total conc (minimum inhibitory concentration chosen for SI). Type of data set: cell-based, Gloeocapsa sp. and Oscillatoria sp. Here is the method:
as §1, §2, §3, §4, §5, §6, §7

For data set [4], the system named is AaTv. As to the kind of experiment: Fungal efficacy on dry paint film (Modified ASTM 5590). The note with it: for % Inhibition: at the total conc; for MIC: total actives in paint, read-out: Total conc (minimum inhibitory concentration chosen for SI). Format: cell-based, Alternaria alternata, Trichoderma viride.
Data set [5] deals with Cp + To + Ta. As to the kind of experiment: Algal efficacy on dry paint film (Modified ASTM 5589). Type of data set: cell-based. The note with it: for Total conc (minimum inhibitory concentration chosen for SI): total actives in paint. As to the method: as §1, §2, §3, §4, §5, §6, §7
Data set [6] has as its system An + Pf. As to the kind of experiment: Fungal efficacy on dry paint film (Modified ASTM 5590). Format: cell-based, Aspergillus niger, Penicillium funiculosum. The note with it: for MIC: total actives in paint, read-out: Total conc (minimum inhibitory concentration chosen for SI). As to the method: as §1, §2
(§8) ASTM 5590 is a standard accelerated test method for determining resistance of various coatings (including paints) to fungal defacement. To accommodate for high-throughput screening, this method was scaled down from petri plates to 6-well plates. To set up the test, an agar plug was placed at the bottom of each well of the sterile 6-well plate. A single coupon was placed with a pair of sterile forceps at the center of the agar plug (on top) with the painted surface facing upwards. Fungal inoculums were prepared by mixing equal concentrations (approximately 1×10^6 cfu/ml) and equal volumes (depending on number of samples to be tested) of like growing organisms. For this synergy study, three pools of mixed fungi were prepared as the test inoculum. Cladosporium herbarum was mixed with Trichoderma viride, Aspergillus niger was mixed with Penicillium funiculosum and Alternaria alternata was mixed with Aureobasidium pullulans. Each well was inoculated with 400 microliter of organism mixture (approximately 1×10^6 cfu/ml) making sure that the whole surface (paint film as well as the agar surrounding it) was evenly covered. The plates were incubated at 30° C. in presence of moisture, for a period of four weeks. The total percent area covered was evaluated and recorded at the end of each week and recorded in increments of 5%.
as §6, §7

Data set [7] deals with diatom (Navicula pelliculosa). The note with it: 7 day; cited from earlier work.
For data set [8], the system named is TV + Ch. As to the kind of experiment: Fungal efficacy on dry paint film (Modified ASTM 5590). Format: cell-based, Trichoderma viride, Cladosporium herbarum. The note with it: four weeks. As to the method: as §1, §2, §8, §6
For data set [9] the following is noted: cited from earlier work.
The test system of data set [10] is Aa + Ap. Kind of data set: Fungal efficacy on dry paint film (Modified ASTM 5590). Type of data set: cell-based, Alternaria alternata, Aureobasidium pullulans. The note with it: four weeks. Here is the method:
as §1, §2, §8, §6

The test system of data set [11] is green algae (Selenastrum capricornutum). The note with it: cited from earlier work; for EbC50: median effective concentration for biomass.
The subject of data set [12] is marine algae (Skeletonema costatum). The note with it: cited from earlier work.
Data set [13] relates to blue-green algae (Anabaena flos-aquae). The note with it: 7 day; cited from earlier work.
The mark [14] stands for this setting: Zinc Glyphosate with DCOIT study.
The mark [15] stands for this setting: Zinc Glyphosate with OIT study, NE=no end point at the concentration tested.
[16] abbreviates: Zinc Glyphosate with DCOIT study, at the total conc.
The mark [17] stands for this setting: Zinc Glyphosate with OIT study, at the total conc.

As usually defined, the % Inhibition is the relative decrease from the control value, in per cent. For the molecule `CCCCCCCCn1sc(Cl)c(Cl)c1=O` [DCOIT, 4,5-dichloro-2-n-octyl-4-isothiazolin-3-one], the “% Inhibition” value in data set [1] (setting [14]) came to 40%; in data set [1] (Zinc Glyphosate with OIT study), 40%; in data set [2] (setting [16]), 20%; in [2] (setting [17]), 100%; in [3] (setting [16]), 60%; in data set [3] (setting [17]) it was 80%. The “% Inhibition” value in data set [4] (setting [14]) was 40%; in data set [4] (Zinc Glyphosate with OIT study) it was 100%; in data set [5] (setting [16]) it was 80%; in data set [5] (setting [17]), 80%; in [6] (setting [16]), 80%; in [6] (setting [17]), 50%. For the same molecule, the MIC worked out at 575 µg/mL in [1] (setting [14]); 900 µg/mL in data set [1] (setting [15]); 575 µg/mL in data set [2] (setting [14]); 900 µg/mL in data set [2] (Zinc Glyphosate with OIT study); 826 µg/mL in data set [3] (setting [14]); 900 µg/mL in data set [3] (setting [15]). In addition, the MIC in data set [4] (setting [14]) amounted to 288 µg/mL (≈ 1020 µM); in data set [4] (setting [15]), 450 µg/mL (≈ 1590 µM); in [6] (setting [14]) it was 1150 µg/mL; in [6] (Zinc Glyphosate with OIT study), 450 µg/mL. In addition, the “Total conc (minimum inhibitory concentration chosen for SI)” value is reported as 575 ppm in data set [5] (setting [14]) and 1350 ppm in data set [5] (Zinc Glyphosate with OIT study).
What is called EC50 is the concentration at which the effect is half-maximal. With `O=C(O)CNCP(=O)(O)O` [Glyphosate, N-(phosphonomethyl)glycine], the “% Inhibition” value in data set [2] (750 ppm in paint, four weeks) was found to be 37.5%; in data set [2] (1500 ppm in paint, four weeks) it was 60%; in data set [2] (2500 ppm in paint, four weeks), 80%; in data set [3] (750 ppm in paint, four weeks), 15%; in data set [3] (1500 ppm in paint, four weeks), 72.5%; in data set [3] (2500 ppm in paint, four weeks), 90%. Moreover, the “% Inhibition” value was 2.5% in data set [8] (750 ppm in paint); 50% in data set [8] (1500 ppm in paint); 72.5% in data set [8] (2500 ppm in paint); 7.5% in [10] (750 ppm in paint); 20% in data set [10] (1500 ppm in paint); 67.5% in [10] (2500 ppm in paint). The “% Inhibition” value in data set [5] (750 ppm in paint, four weeks) stood at 0%; in data set [5] (1500 ppm in paint, four weeks) it was 10%; in data set [5] (2500 ppm in paint, four weeks), 7.5%; in data set [6] (750 ppm in paint, four weeks), 0%; in data set [6] (1500 ppm in paint, four weeks), 5%; in [6] (2500 ppm in paint, four weeks), 10%. For the same molecule, the EC50 was 42 µg/mL (≈ 248 µM) in data set [7], 1.3 µg/mL (≈ 7.69 µM) in data set [12] (96 hr), 0.64 µg/mL (≈ 3.79 µM) in data set [12] (7 day) and 15 µg/mL (≈ 88.7 µM) in data set [13]. Also, the solubility in water entry in [9] is recorded as “relatively high”. Besides, the EbC50 in data set [11] (72 hr) was 485 mg/L; in [11] (7 day) it was 13.8 mg/L. Further, in [11] (72 hr, median effective concentration for growth rate), the ErC50 is 460 mg/L.
Take Zinc Glyphosate: the “% Inhibition” value in [3] (750 ppm in paint, four weeks) was found to be 15%; in data set [3] (1500 ppm in paint, four weeks), 72.5%; in [3] (2500 ppm in paint, four weeks), 90%; in data set [8] (750 ppm in paint) it was 50%; in data set [8] (1500 ppm in paint), 75%; in [8] (2500 ppm in paint) it was 90%. In addition, the “% Inhibition” value in data set [10] (1500 ppm in paint) turned out to be 47.5%; in [10] (2500 ppm in paint) it was 70%; in [6] (750 ppm in paint, four weeks) it was 20%; in data set [6] (1500 ppm in paint, four weeks), 27.5%; in data set [6] (2500 ppm in paint, four weeks), 30%.
